{"source": "ChEMBL document CHEMBL1201862", "about": "“PubChem BioAssay data set” (2004)", "key": {"[1]": {"molecular_target": "T1, Calpain-2 catalytic subunit (Sus scrofa, UniProt P43367)", "T1 sequence (P43367 whole entry)": "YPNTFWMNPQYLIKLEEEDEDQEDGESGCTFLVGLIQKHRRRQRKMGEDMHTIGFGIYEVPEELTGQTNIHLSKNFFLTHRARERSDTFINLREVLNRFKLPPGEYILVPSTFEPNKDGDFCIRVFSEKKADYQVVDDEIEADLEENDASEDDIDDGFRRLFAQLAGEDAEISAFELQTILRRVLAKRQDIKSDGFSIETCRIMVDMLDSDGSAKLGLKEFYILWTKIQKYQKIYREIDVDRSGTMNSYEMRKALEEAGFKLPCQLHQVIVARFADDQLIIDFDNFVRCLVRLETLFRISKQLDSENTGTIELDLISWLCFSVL", "test": "m-calpain protease blockers, concentration series – biochemical, fluorogenic peptide substrate, dose response (AID 1420)", "format": "functional"}, "Coagulation factor XII": {"molecular_target": "T2, Coagulation factor XII (Homo sapiens, UniProt P00748)", "T2 sequence (P00748 whole entry)": "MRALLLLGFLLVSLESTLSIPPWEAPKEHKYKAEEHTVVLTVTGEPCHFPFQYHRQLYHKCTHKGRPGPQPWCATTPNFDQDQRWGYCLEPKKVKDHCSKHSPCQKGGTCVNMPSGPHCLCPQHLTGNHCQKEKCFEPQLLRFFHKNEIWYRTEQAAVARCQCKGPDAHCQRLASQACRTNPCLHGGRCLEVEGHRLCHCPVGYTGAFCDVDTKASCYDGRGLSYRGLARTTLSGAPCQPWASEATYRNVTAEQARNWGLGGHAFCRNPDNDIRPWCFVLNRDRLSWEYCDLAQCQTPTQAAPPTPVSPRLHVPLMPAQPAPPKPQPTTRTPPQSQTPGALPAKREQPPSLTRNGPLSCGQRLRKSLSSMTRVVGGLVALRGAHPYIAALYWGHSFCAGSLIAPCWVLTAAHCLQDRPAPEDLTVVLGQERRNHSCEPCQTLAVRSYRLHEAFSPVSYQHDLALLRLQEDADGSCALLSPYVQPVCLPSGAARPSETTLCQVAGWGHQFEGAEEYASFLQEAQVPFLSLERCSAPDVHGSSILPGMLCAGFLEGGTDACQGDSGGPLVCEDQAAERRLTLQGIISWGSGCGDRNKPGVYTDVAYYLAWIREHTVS", "format": "functional"}, "Escherichia coli": {"tested_on": "Escherichia coli", "test": "microbe, parasite or virus in culture"}, "[2]": {"molecular_target": "Glyceraldehyde-3-phosphate dehydrogenase (Homo sapiens, UniProt P04406)", "sequence (P04406 whole entry)": "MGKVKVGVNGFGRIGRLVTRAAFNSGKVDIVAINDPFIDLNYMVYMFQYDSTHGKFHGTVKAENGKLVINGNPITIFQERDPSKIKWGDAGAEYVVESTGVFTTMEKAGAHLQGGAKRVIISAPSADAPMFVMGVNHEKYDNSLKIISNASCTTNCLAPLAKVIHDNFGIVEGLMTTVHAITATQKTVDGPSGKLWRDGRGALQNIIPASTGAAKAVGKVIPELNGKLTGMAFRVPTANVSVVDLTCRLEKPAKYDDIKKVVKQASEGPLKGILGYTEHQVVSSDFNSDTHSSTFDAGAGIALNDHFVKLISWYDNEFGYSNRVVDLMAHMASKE"}, "[3]": {"molecular_target": "T3, Alkaline phosphatase, tissue-nonspecific isozyme (Homo sapiens, UniProt P05186)", "T3 sequence (P05186 whole entry)": "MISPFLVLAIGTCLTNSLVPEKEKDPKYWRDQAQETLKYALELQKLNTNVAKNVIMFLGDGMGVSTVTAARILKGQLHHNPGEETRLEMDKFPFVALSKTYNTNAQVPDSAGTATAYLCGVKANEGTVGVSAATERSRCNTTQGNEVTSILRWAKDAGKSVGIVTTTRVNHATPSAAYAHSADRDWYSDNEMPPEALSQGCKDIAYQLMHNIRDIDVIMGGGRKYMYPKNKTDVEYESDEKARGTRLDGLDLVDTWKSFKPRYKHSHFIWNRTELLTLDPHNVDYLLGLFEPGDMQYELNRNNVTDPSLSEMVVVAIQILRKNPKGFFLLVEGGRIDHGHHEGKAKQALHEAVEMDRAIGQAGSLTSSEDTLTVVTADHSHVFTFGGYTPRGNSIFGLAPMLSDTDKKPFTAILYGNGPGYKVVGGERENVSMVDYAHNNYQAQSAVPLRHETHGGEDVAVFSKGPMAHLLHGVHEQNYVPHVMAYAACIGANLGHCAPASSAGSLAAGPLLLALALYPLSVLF", "test": "potency against alkaline phosphatase TNAP – biochemical, luminescent, dose response, SAR follow-up (AID 1056)"}, "[4]": {"molecular_target": "T4, Ubiquitin-conjugating enzyme E2 N (Homo sapiens, UniProt P61088)", "T4 sequence (P61088 whole entry)": "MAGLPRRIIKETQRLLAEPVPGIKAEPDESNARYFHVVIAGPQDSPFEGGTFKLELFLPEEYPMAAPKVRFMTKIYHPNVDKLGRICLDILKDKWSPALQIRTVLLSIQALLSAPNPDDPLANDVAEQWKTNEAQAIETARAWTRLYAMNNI", "format": "functional"}, "Nonstructural protein 1": {"molecular_target": "Nonstructural protein 1 (Influenza A virus, UniProt Q194T2)", "sequence (Q194T2 whole entry)": "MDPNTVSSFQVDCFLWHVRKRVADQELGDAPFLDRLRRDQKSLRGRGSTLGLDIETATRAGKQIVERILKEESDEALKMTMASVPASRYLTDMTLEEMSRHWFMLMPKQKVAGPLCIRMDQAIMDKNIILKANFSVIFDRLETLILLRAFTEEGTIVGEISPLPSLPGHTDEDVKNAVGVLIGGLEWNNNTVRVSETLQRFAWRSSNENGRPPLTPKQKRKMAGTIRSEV", "format": "functional, Influenza A virus (A/California/07/2009(H1N1))"}, "[5]": {"molecular_target": "T5, DNA repair and recombination protein RAD54-like (Homo sapiens, UniProt Q92698)", "T5 sequence (Q92698 whole entry)": "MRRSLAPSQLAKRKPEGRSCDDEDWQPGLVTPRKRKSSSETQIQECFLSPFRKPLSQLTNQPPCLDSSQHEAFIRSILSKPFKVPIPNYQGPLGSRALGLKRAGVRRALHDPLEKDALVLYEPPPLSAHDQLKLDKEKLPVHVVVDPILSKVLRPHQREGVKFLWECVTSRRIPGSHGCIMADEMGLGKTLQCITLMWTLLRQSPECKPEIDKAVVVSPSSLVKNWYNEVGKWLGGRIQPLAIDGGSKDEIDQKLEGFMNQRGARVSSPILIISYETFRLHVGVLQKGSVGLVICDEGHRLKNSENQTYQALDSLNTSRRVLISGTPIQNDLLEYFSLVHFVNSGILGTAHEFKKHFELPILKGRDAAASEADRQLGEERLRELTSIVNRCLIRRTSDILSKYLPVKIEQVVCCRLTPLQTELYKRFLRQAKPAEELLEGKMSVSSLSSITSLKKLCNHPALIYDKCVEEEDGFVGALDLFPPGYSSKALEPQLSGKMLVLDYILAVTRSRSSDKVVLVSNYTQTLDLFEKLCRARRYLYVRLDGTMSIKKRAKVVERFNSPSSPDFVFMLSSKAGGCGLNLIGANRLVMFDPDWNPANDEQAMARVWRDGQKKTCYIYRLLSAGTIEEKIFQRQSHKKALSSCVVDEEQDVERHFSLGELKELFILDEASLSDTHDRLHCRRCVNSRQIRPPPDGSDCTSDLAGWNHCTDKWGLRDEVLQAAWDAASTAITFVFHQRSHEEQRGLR", "test": "RAD54 Holliday junction migration blockers – biochemical, fluorescence, cherry-picked samples, dose series, confirmation (AID 651657)", "format": "functional"}, "Cytochrome P450 3A4": {"molecular_target": "Cytochrome P450 3A4 (Homo sapiens, UniProt P08684)", "sequence (P08684 whole entry)": "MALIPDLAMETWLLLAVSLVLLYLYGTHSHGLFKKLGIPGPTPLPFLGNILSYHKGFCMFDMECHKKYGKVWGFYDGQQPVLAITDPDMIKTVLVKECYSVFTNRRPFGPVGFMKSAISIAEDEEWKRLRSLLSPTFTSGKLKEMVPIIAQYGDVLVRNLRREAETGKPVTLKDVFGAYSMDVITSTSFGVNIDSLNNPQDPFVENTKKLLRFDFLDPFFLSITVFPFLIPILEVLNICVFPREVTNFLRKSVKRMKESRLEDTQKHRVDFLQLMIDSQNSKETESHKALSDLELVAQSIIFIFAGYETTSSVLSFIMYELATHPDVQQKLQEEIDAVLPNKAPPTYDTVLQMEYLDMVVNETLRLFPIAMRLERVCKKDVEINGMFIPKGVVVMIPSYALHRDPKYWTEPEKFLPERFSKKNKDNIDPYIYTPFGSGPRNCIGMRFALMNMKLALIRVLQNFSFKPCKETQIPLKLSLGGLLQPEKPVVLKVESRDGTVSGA"}}, "note": "Activity calls are given as the source filed them."}
{"smiles": "COc1ccc(OC)c(CNc2ccc([N+](=O)[O-])cc2C)c1", "values": [{"measurement": "IC50", "setting": "[1]", "result": "8.98 µM (not active)"}, {"measurement": "IC50", "setting": "Coagulation factor XII", "result": "> 50 µM (inactive)"}]}
{"smiles": "COc1ccccc1NS(=O)(=O)c1cc(NC(C)=O)ccc1N1CCCCC1", "values": [{"measurement": "AC50", "setting": "Escherichia coli", "result": "30.4 µM (active)"}]}
{"smiles": "CN(C(=O)COC(=O)c1cc(-c2ccc(Br)cc2)[nH]n1)C1CCCCC1", "values": [{"measurement": "IC50", "setting": "[2]", "result": "> 100 µM (not active)"}, {"measurement": "IC50", "setting": "[3]", "result": "> 100 µM (inactive)"}]}
{"smiles": "CCc1nc2ccccc2c(C(=O)OCc2nc3ccccc3c(=O)[nH]2)c1C", "values": [{"measurement": "IC50", "setting": "[4]", "result": "> 20 µM (inactive)"}]}
{"smiles": "O=C(N[C@H](C(=O)O)c1ccccc1)C1CCC(Cn2nnc3ccccc3c2=O)CC1", "note": "(stereo partly specified)", "values": [{"measurement": "IC50", "setting": "Coagulation factor XII", "result": "> 50 µM (inactive)"}]}
{"smiles": "c1cncc(-n2cnnn2)c1", "values": [{"measurement": "IC50", "setting": "[2]", "result": "> 100 µM (not active)"}, {"measurement": "IC50", "setting": "[3]", "result": "> 100 µM (inactive)"}]}
{"smiles": "C=CC(=O)Nc1ccc(N(C)c2ccnc(Nc3ccc(N4CCN(C)CC4)cc3)n2)cc1", "values": [{"measurement": "IC50", "setting": "Nonstructural protein 1", "result": "25.5 µM (active)"}, {"measurement": "IC50", "setting": "[4]", "result": "> 20 µM (inactive)"}, {"measurement": "AC50", "setting": "[5]", "result": "21 µM (active)"}]}
{"smiles": "COc1ccccc1N1CCN(C/C(O)=C(\\C#N)c2nc(-c3ccccc3)cs2)CC1", "values": [{"measurement": "IC50", "setting": "Coagulation factor XII", "result": "> 50 µM (inactive)"}]}
{"smiles": "CC(C)/N=C/c1c(O)[nH]c2ccccc12", "values": [{"measurement": "IC50", "setting": "Coagulation factor XII", "result": "> 50 µM (inactive)"}]}
{"smiles": "Cn1c(=O)[nH]c2ncn(C)c2c1=O", "note": "[PARAXANTHINE]", "values": [{"measurement": "AC50", "setting": "Cytochrome P450 3A4", "result": "inconclusive"}, {"measurement": "AC50", "setting": "Escherichia coli", "result": "23.3 µM (active)"}]}
